Experimental data as given in US10273222B2 (CELGENE QUANTICEL RESEARCH, INC., priority 2013, dated 2019).
pIC50: −log10 of the molar value.

Columns and labels:
Format in all cases: biochemical
Jarid1A = Jarid1A (Homo sapiens (Human), UniProt P29375); assay: Jarid1A in vitro enzyme inhibition assay (TR-FRET)
Text: The enzymatic assay of Jarid1A activity is based upon Time Resolved-Fluorescence Resonance Energy Transfer (TR-FRET) detection.

FBXL10 = FBXL10 (Homo sapiens (Human), UniProt Q8NHM5); assay: FBXL10 in vitro enzyme inhibition assay (AlphaScreen)
Sequence of FBXL10 (Q8NHM5 1-650): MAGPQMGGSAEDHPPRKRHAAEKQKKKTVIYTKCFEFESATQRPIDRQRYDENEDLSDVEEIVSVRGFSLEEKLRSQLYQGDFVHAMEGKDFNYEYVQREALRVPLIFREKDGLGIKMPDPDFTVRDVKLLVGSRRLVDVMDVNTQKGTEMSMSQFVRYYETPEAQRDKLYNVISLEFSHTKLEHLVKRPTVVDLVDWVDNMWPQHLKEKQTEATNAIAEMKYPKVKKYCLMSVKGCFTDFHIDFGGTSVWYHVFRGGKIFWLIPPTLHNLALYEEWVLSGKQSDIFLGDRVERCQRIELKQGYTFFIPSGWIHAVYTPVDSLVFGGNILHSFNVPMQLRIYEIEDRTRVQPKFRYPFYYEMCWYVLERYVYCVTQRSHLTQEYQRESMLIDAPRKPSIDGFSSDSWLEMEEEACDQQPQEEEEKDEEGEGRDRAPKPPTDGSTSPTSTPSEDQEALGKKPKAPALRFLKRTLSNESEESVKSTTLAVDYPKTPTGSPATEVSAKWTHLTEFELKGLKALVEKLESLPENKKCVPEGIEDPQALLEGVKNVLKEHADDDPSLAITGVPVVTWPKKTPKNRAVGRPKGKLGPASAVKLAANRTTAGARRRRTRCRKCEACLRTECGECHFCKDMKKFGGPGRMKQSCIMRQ
Experimental: Reaction product was determined quantitatively by AlphaScreen detection after the addition of detection reagents anti-H3K36me1 antibody, AlphaScreen® Streptavidin-coated Donor beads, and AlphaScreen® Protein A Acceptor beads in 50 mM HEPES, pH7.3, 10 mM NaCl, 0.005% Brij35, 5 mM EDTA, 2 mg/ml BSA to final 10 μg/ml beads.
Plates were incubated at room temperature for 40 minutes, followed by addition of 3 μl of 50 μg/ml AlphaScreen® Streptavidin-coated Donor beads and AlphaScreen® Protein A Acceptor beads in 50 mM HEPES, pH7.3, 10 mM NaCl, 0.005% Brij35, 5 mM EDTA, 2 mg/ml BSA. Plates were read by EnVisionMultilabel Reader in AlphaScreen mode after a minimum of 2 hour or up to overnight incubation at room temperature. The AlphaScreen signal for each well was used to determine inhibition constant (IC50).

JMJD2C = JMJD2C (Homo sapiens (Human), UniProt Q9H3R0); assay: JMJD2C in vitro enzyme inhibition assay (TR-FRET)
Sequence of JMJD2C (Q9H3R0 2-372): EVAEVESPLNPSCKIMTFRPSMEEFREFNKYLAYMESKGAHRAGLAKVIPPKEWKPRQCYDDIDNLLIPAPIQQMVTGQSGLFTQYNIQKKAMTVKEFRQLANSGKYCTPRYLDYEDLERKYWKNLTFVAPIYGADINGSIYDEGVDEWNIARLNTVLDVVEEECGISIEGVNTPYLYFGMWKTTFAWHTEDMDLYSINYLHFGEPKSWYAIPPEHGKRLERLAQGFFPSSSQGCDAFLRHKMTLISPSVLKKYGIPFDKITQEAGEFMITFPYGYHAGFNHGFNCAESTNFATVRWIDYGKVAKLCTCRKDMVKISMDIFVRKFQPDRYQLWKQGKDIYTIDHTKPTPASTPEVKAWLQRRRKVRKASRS

Jarid1B = Jarid1B (Homo sapiens (Human), UniProt Q9UGL1); assay: Jarid1B in vitro enzyme inhibition assay (TR-FRET)
Sequence of Jarid1B (Q9UGL1 2-751): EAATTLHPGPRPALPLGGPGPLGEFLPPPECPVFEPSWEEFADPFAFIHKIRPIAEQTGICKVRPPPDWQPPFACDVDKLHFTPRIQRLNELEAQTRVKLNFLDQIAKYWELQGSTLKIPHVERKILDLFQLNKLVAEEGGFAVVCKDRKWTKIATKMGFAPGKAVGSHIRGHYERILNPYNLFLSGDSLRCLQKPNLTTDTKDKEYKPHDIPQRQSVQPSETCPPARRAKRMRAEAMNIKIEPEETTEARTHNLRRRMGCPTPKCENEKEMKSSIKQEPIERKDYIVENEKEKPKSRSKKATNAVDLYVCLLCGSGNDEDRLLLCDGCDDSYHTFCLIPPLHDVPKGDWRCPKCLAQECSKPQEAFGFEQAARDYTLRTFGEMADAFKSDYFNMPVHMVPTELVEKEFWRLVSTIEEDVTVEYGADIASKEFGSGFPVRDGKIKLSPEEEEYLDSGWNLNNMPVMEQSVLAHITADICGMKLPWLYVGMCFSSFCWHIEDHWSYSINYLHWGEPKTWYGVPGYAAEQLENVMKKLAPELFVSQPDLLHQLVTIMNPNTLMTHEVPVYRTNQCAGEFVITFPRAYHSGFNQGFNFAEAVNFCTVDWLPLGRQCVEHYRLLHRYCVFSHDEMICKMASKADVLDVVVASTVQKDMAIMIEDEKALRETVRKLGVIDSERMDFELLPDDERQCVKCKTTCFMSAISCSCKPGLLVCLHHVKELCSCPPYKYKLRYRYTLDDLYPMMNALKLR

Sequence of Jarid1A (P29375 1-1090): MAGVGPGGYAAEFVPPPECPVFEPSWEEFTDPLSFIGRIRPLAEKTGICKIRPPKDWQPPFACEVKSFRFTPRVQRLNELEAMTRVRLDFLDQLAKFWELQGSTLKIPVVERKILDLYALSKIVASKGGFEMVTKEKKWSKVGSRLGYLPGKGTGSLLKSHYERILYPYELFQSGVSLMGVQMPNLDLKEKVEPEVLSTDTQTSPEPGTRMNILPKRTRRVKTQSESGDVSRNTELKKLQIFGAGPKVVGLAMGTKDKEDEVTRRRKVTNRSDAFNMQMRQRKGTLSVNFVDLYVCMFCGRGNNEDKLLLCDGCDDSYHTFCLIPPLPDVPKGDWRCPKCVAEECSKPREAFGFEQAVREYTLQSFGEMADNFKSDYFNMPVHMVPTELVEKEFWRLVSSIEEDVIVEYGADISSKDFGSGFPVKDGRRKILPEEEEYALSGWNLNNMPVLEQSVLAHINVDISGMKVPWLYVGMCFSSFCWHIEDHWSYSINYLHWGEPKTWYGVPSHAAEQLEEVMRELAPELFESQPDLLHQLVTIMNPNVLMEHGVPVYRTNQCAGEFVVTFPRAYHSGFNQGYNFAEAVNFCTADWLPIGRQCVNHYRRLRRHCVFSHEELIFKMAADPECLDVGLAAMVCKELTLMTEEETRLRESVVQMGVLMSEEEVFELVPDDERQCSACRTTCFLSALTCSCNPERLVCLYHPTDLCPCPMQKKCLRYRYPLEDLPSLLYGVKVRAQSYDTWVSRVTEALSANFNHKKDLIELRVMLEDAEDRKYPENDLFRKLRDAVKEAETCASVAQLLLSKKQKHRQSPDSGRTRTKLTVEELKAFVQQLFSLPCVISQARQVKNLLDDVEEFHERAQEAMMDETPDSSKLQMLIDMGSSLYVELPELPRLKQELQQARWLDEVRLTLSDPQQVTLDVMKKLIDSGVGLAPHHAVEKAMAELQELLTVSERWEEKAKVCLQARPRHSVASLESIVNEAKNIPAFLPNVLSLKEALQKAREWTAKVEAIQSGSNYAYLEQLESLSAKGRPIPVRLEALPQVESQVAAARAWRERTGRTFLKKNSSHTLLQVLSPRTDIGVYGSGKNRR

| Structure (SMILES) | pIC50 (Jarid1A) | pIC50 (FBXL10) | pIC50 (JMJD2C) | pIC50 (Jarid1B) |
| --- | --- | --- | --- | --- |
| Cn1cnc(-c2cc(C(=O)O)ccn2)c1Br [Example 2, 2-(5-bromo-1-methyl-1H-imidazol-4-yl)pyridine-4-carboxylic acid] | ≥ 7.00 | 6.00 to 7.00 | 6.00 to 7.00 | ≥ 7.00 |
| Cc1ccc(-c2c(-c3cc(C(=O)O)ccn3)ncn2C)cc1 [Example 4, 2-[1-methyl-5-(4-methylphenyl)-1H-imidazol-4-yl]pyridine-4-carboxylic acid] | ≥ 7.00 | 6.00 to 7.00 | 5.00 to 6.00 | ≥ 7.00 |
| CCc1ccc(-c2c(-c3cc(C(=O)O)ccn3)ncn2C)cc1 [Example 5, 2-[5-(4-ethylphenyl)-1-methyl-1H-imidazol-4-yl]pyridine-4-carboxylic acid] | ≥ 7.00 | 6.00 to 7.00 | 5.00 to 6.00 | ≥ 7.00 |
| Cn1cnc(-c2cc(C(=O)O)ccn2)c1-c1ccc(C(F)(F)F)cc1 [Example 6, 2-{1-methyl-5-[4-(trifluoromethyl)phenyl]-1H-imidazol-4-yl}pyridine-4-carboxylic acid] | ≥ 7.00 | 6.00 to 7.00 | 5.00 to 6.00 | ≥ 7.00 |
| Cn1cnc(-c2cc(C(=O)O)ccn2)c1-c1ccc(C(C)(C)C)cc1 [Example 9, 2-[5-(4-tert-butylphenyl)-1-methyl-1H-imidazol-4-yl]pyridine-4-carboxylic acid] | 6.00 to 7.00 |  | 5.00 to 6.00 | 6.00 to 7.00 |
| CNC(=O)c1cccc(-c2c(-c3cc(C(=O)O)ccn3)ncn2C)c1 [Example 10, 2-{1-methyl-5-[3-(methylcarbamoyl)phenyl]-1H-imidazol-4-yl}pyridine-4-carboxylic acid] | 6.00 to 7.00 |  | 5.00 to 6.00 | 6.00 to 7.00 |
| Cn1cnc(-c2cc(C(=O)O)ccn2)c1-c1cccc(CO)c1 [Example 11, 2-{5-[3-(hydroxymethyl)phenyl]-1-methyl-1H-imidazol-4-yl}pyridine-4-carboxylic acid] | 6.00 to 7.00 | 6.00 to 7.00 | 5.00 to 6.00 | 6.00 to 7.00 |
| Cn1cnc(-c2cc(C(=O)O)ccn2)c1-c1ccc(OC(F)(F)F)cc1 [Example 13, 2-{1-methyl-5-[4-(trifluoromethoxy)phenyl]-1H-imidazol-4-yl}pyridine-4-carboxylic acid] | 6.00 to 7.00 | 6.00 to 7.00 | 5.00 to 6.00 | 6.00 to 7.00 |
| CCOc1ccc(-c2c(-c3cc(C(=O)O)ccn3)ncn2C)cc1 [Example 14, 2-[5-(4-ethoxyphenyl)-1-methyl-1H-imidazol-4-yl]pyridine-4-carboxylic acid] | 6.00 to 7.00 | 6.00 to 7.00 | 5.00 to 6.00 | 6.00 to 7.00 |
| Cn1cnc(-c2cc(C(=O)O)ccn2)c1-c1ccc(C2(CO)CC2)cc1 [Example 17, 2-(5-{4-[1-(hydroxymethyl)cyclopropyl]phenyl}-1-methyl-1H-imidazol-4-yl)pyridine-4-carboxylic acid] | ≥ 7.00 |  | 6.00 to 7.00 | ≥ 7.00 |
| COCC1(c2ccc(-c3c(-c4cc(C(=O)O)ccn4)ncn3C)cc2)CC1 [Example 25, 2-(5-{4-[1-(methoxymethyl)cyclopropyl]phenyl}-1-methyl-1H-imidazol-4-yl)pyridine-4-carboxylic acid] | ≥ 7.00 |  | 5.00 to 6.00 | ≥ 7.00 |
| Cc1cc(Cl)ccc1-c1c(-c2cc(C(=O)O)ccn2)ncn1C [Example 26, 2-[5-(4-chloro-2-methylphenyl)-1-methyl-1H-imidazol-4-yl]pyridine-4-carboxylic acid] | ≥ 7.00 |  | 5.00 to 6.00 | 6.00 to 7.00 |
| Cn1cnc(-c2cc(C(=O)O)ccn2)c1-c1ccc(C2(C(F)(F)F)CC2)cc1 [Example 34, 2-(1-methyl-5-{4-[1-(trifluoromethyl)cyclopropyl]phenyl}-1H-imidazol-4-yl)pyridine-4-carboxylic acid] | ≥ 7.00 |  | 6.00 to 7.00 | ≥ 7.00 |
| CN(C)CCCn1cnc(-c2cc(C(=O)O)ccn2)c1 [Example 42, 2-{1-[3-(dimethylamino)propyl]-1H-imidazol-4-yl}pyridine-4-carboxylic acid] | ≥ 7.00 |  | ≥ 7.00 | ≥ 7.00 |
| O=C(O)c1ccnc(-c2cn(CCN3CCOCC3)cn2)c1 [Example 45, 2-{1-[2-(morpholin-4-yl)ethyl]-1H-imidazol-4-yl}pyridine-4-carboxylic acid] | 5.00 to 6.00 |  | < 5.00 | 6.00 to 7.00 |
| CC(Cn1cnc(-c2cc(C(=O)O)ccn2)c1)N1CCCC1 (stereo not drawn) [Example 61, 2-{1-[2-(pyrrolidin-1-yl)propyl]-1H-imidazol-4-yl}pyridine-4-carboxylic acid] | ≥ 7.00 |  | ≥ 7.00 | ≥ 7.00 |
| O=C(O)c1ccnc(-c2cn(CCNCc3ccccc3C(F)(F)F)cn2)c1 [Example 75, 2-[1-[2-[[2-(trifluoromethyl)phenyl]methylamino]ethyl]imidazol-4-yl]pyridine-4-carboxylic acid] | ≥ 7.00 |  | ≥ 7.00 | ≥ 7.00 |
| COc1ccc(CCn2cnc(-c3cc(C(=O)O)ccn3)c2)cc1 [Example 94, 2-[1-[2-(4-methoxyphenyl)ethyl]imidazol-4-yl]pyridine-4-carboxylic acid] | ≥ 7.00 |  | ≥ 7.00 | ≥ 7.00 |
| Cn1cnc(-c2cc(-c3nn[nH]n3)ccn2)c1-c1ccc(F)c(O)c1 [Example 162, 2-fluoro-5-[3-methyl-5-[4-(2H-tetrazol-5-yl)pyridin-2-yl]imidazol-4-yl]phenol] |  | ≥ 7.00 | 5.00 to 6.00 |  |
| Cn1cnc(-c2cc(-c3nn[nH]n3)ccn2)c1-c1ccc(F)c(C(=O)Nc2ccccc2)c1 [Example 163, 2-fluoro-5-[3-methyl-5-[4-(2H-tetrazol-5-yl)pyridin-2-yl]imidazol-4-yl]-N-phenylbenzamide] |  | 6.00 to 7.00 | 5.00 to 6.00 |  |
| Cn1cnc(-c2cc(-c3nn[nH]n3)ccn2)c1-c1ccc(F)c2ccccc12 [Example 164, 2-[5-(4-fluoronaphthalen-1-yl)-1-methylimidazol-4-yl]-4-(2H-tetrazol-5-yl)pyridine] |  | ≥ 7.00 | 5.00 to 6.00 |  |
| Cn1nnc(-c2ccnc(-c3cn(Cc4ccccc4Cl)cn3)c2)n1 [Example 165, 2-(1-(2-chlorobenzyl)-1H-imidazol-4-yl)-4-(2-methyl-2H-tetrazol-5-yl)pyridine] |  | 5.00 to 6.00 | 5.00 to 6.00 |  |
| CC(C)(C)C(=O)OCn1nnc(-c2ccnc(-c3cn(Cc4ccccc4Cl)cn3)c2)n1 [Example 166, (5-(2-(1-(2-chlorobenzyl)-1H-imidazol-4-yl)pyridin-4-yl)-2H-tetrazol-2-yl)methyl pivalate] |  | 5.00 to 6.00 | 5.00 to 6.00 |  |
| CC(=O)OCn1nnc(-c2ccnc(-c3cn(Cc4ccccc4Cl)cn3)c2)n1 [Example 167, (5-(2-(1-(2-chlorobenzyl)-1H-imidazol-4-yl)pyridin-4-yl)-2H-tetrazol-2-yl)methyl acetate] |  | 6.00 to 7.00 | 5.00 to 6.00 |  |
| Fc1ccc(-c2c(-c3cc(-c4nn[nH]n4)ccn3)ncn2Cc2cccc(Cl)c2)c(OCC2CC2)c1 [Example 169, 2-(1-(3-chlorobenzyl)-5-(2-(cyclopropylmethoxy)-4-fluorophenyl)-1H-imidazol-4-yl)-4-(2H-tetrazol-5-yl)pyridine] |  | 6.00 to 7.00 | 5.00 to 6.00 |  |
